Test results taken from patent US20080063642A1, “Methods of using (+)-1,4-dihydro-7-[(3S,4S)-3-methoxy-4-(methylamino)-1-pyrrolidinyl]-4-oxo-1-(2-thiazolyl)-1,8-naphthyridine-3-carboxylic acid for treatment of certain hematologic disorders” (priority 2006, published 2008).
Values after ≈ are worked out from the molar mass of the structure shown. Marks after values point to notes of the source that are not given here. Blank lines part the entries; values can stand above or below the compound they belong to.

What was measured:
[1] = test system: peripheral neutrophils, white blood cells, platelets; test: Combination dosing SNS-595 and Ara-C (Example 5): peripheral cytology; format: in vivo, nu/nu mice
Description: At various time points described in Table 5, mice were euthanized by CO2 asphyxiation in accordance to Institutional Animal Care and Use Committee (IACUC) guidelines. Blood was collected through cardiac tap and transferred to EDTA tubes. The analysis of murine blood CBC and differential counts for samples in these tubes was conducted (at Quality Clinical Labs, Moutainview). Statistical significance was determined by one-tailed student t-test, using Welch's correction for unequal variances.

[2] = Combination dosing SNS-595 and Ara-C (Example 5): body weight changes
Description: The effects of dosing were studied on changes in body weight, peripheral cytology, and femoral bone marrow cellularity over time as described below.
Before beginning the study, all animals were allowed to acclimatize for 3 days from shipping related stress and the health of the mice was assessed daily by observation. Purified water (reverse osmosis) and irradiated food (PicoLab Rodent Diet 20, #5053; Dean's Animal Feeds, San Carlos, Calif.) were provided ad libitum, and the animals were kept on a 12 hour light and dark cycle.

femoral bone marrow = test: Combination dosing SNS-595 and Ara-C (Example 5): femoral bone marrow cellularity; format: in vivo, nu/nu mice
Text: Femurs were harvested for histological evaluation. The femur was placed in Streck fixative, paraffin embedded, sectioned, transferred to slides, and H&E stained (at BioPathology Sciences). Immunohistochemical slides were processed and analyzed for percent cellularity of intact bone marrow.

bone marrow = test: Monotherapy and combination with Ara-C (Example 6): bone marrow total cellularity; format: in vivo, Female CD-1 mice; settings: for Total Cellularity (Avg) Exp #1: two days after completion of treatment
Description: Blood was analyzed at Quality Control Labs (Mountain View, Calif.) for complete blood count and differential count. Bone marrow smears from femurs on Day 6 and Day 12 were prepared and geimsa stained for differential counts. Femurs were also placed in Streck fixative, processed, sectioned and H&E stained. Femur and bone marrow smears were analyzed at BioPathology Sciences (South San Francisco, Calif.) for total cellularity and differential count. […] The compounds were administered on Day 0 and Day 4.

in vivo = settings: CD-1, mouse
[3] = test system: CEM/C2 (camptothecan resistant derivative of CCRF-CEM); test: MTT cell viability assay, CEM/C2; format: cell-based; settings: Homo sapiens, MTT after 72 hours
Description: (§1) The following cell lines were used in this assay: HL-60 (promyelocytic leukemia); Jurkat (T cell leukemia); CCRF-CEM (lymphoblastic leukemia); CEM/C2 (camptothecan resistant derivative of CCRF-CEM).
(§2) Cells were seeded in 96 wells plates at 3000 cells per well and incubated for 16 hours. Compound dilutions were performed in DMSO from 10 mM with 3 fold dilutions. Titrations were diluted 1:100 in media to achieve final compound concentrations. The 96 well plates were aspirated and compound dilutions in media were added ([…]). MTT analysis was carried out after 72 hours of incubation at 37° C. Briefly, […] of MTT solution was added to each well. Cells were incubated at 37° C. for 1-2 hours. Cells were lysed with the addition of […] cell lysis buffer and MTT was solubilized overnight at 37° C. Plates were read on a spectromax machine with an absorbance measurement at […]. IC50's were calculated (data provided in Table 1) using regression analysis within GraphPad Prism.

[4] = test system: HL-60 (promyelocytic leukemia); test: MTT cell viability assay, HL-60; format: cell-based; settings: Homo sapiens, MTT after 72 hours
Description: as §1, §2

[5] = test system: LM3-Jck human malignant lymphoma tumor; test: LM3-Jck xenograft model; format: in vivo; settings: LM3-JcK
Description: LM3-Jck human malignant lymphoma tumor lobes (2-3 mm square) were transplanted subcutaneously into nude mice. Tumors were allowed to grow to approximately 7-14 mm in diameter. […] Acceptable toxicity was defined as a mean group weight loss of 30% or less and not more than one toxic death among 6 treated animals. Anti-tumor activities of the drugs were assessed 21 days after the start of administration.

[6] = test system: CCRF-CEM (lymphoblastic leukemia); test: MTT cell viability assay, CCRF-CEM; format: cell-based; settings: Homo sapiens, MTT after 72 hours
Description: as §1, §2

[7] = test system: CCRF-CEM acute lymphoblastic leukemia tumor; test: CCRF-CEM xenograft model; format: in vivo
Description: CCRF-CEM acute lymphoblastic leukemia tumor lobes of 2-3 mm square were transplanted subcutaneously into nude mice. Tumors were allowed to grow to approximately 8-20 mm in diameter. […] Acceptable toxicity was defined as a mean group weight loss of 30% or less and not more than one toxic death among 6 treated animals. Anti-tumor activities of the drugs were assessed 20 or 21 days after the start of administration. FIGS. 1-2 and Table 2 provides data for tumor inhibition rate (IR) and survival ratio in the CCRF-CEM and LM3-Jck xenograft models.

[8] = Ara-C 20, 40 and 60 mg/kg tid q4d ×2
[9] = Group 5: Ara-C 20 mg/kg SC tid q4d × 2
[10] = Group 6: Ara-C 40 mg/kg SC tid q4d × 2
[11] = Group 7: Ara-C 60 mg/kg SC tid q4d × 2
[12] = CCRF-CEM, 100 mg/kg q4d × 3, IV

SMILES: Nc1ccn([C@@H]2O[C@H](CO)[C@@H](O)[C@@H]2O)c(=O)n1 [Ara-C, cytarabine]
day of nadir of number of neutrophils ([1]; Ara-C 20 mg/kg tid q4d ×2): 6 days
day of nadir of platelets ([1]; Ara-C 40 mg/kg tid q4d ×2): 8 days
number of white blood cells versus vehicle group ([1]; Ara-C 60 mg/kg, day 8): significantly lower than the vehicle group
circulating white blood cells, dose response [1, 8]: dose-dependent reduction
day of nadir of platelets ([1]; Ara-C 20 and 60 mg/kg tid q4d ×2): 6 days
day of nadir of number of neutrophils ([1]; Ara-C 40 and 60 mg/kg tid q4d ×2): 8 days
day by which neutrophils returned to normal levels ([1]; Ara-C all dose levels): ≤ 12 days
day by which platelets returned to normal levels ([1]; Ara-C all dose levels): ≤ 12 days
recovery of white blood cells ([1]; Ara-C all dose levels): failed to return to normal levels by day 18
number of platelets versus vehicle group ([1]; Ara-C all dose levels, day 6 and day 8): significantly lower than the vehicle group
number of neutrophils versus vehicle group ([1]; Ara-C all dose levels, day 8): significantly lower than the vehicle group
day of maximum body weight loss [2, 8]: 7 days
maximum body weight loss [2, 8]: ≤ 2%
% of Body Wt Nadir [2, 9]: −0.3%
Day of Body Wt Nadir [2, 9]: 7 days
% of Body Wt Nadir [2, 10]: 0%
Day of Body Wt Nadir [2, 10]: 0 days
% of Body Wt Nadir [2, 11]: −1.7%
Day of Body Wt Nadir [2, 11]: 7 days
reduction in cellularity (femoral bone marrow; Ara-C 20 mg/kg SC three times a day, single agent): 12%
bone marrow cellularity, dose response (femoral bone marrow; Ara-C single agent 20, 40, 60 mg/kg): No dose dependent reduction
total cellularity, femur cross section of representative animal (femoral bone marrow; Day 6, Ara-C 20 mg/kg tid q4d ×2 SC, Animal #83): 90%
total cellularity, femur cross section of representative animal (femoral bone marrow; Day 6, Ara-C 40 mg/kg tid q4d ×2 SC, Animal #103): 90%
total cellularity, femur cross section of representative animal (femoral bone marrow; Day 6, Ara-C 60 mg/kg tid q4d ×2 SC, Animal #122): 50%
total cellularity, femur cross section of representative animal (femoral bone marrow; Day 12, Ara-C 60 mg/kg tid q4d ×2 SC, Animal #134): 50%
Average Total Cellularity Day 6 (femoral bone marrow; [9]): 88%
Average Total Cellularity Day 6 (femoral bone marrow; [10]): 90%
Average Total Cellularity Day 6 (femoral bone marrow; [11]): 58%
Average Total Cellularity Day 12 (femoral bone marrow; [11]): 99%
Total Cellularity (Avg) Exp #2 (bone marrow; Ara-C 20 mg/kg tid q4d ×2): 92%
Total Cellularity (Avg) Exp #1 (bone marrow; Ara-C 20 mg/kg tid q4d × 2): 88%
Total Cellularity (Avg) Exp #2 (bone marrow; Ara-C 60 mg/kg tid q4d × 2): 54%
Total Cellularity (Avg) Exp #1 (bone marrow; Ara-C 60 mg/kg tid q4d × 2): 58%
MTD (in vivo): 60 mg/kg

IC50 [3]: 0.017 µg/mL (≈ 0.0313 µM)
IC50 [4]: 0.024 µg/mL (≈ 0.0442 µM)
IC50 [6]: 0.003 µg/mL (≈ 0.00552 µM)
SMILES: COc1cccc2c1C(=O)c1c(O)c3c(c(O)c1C2=O)C[C@@](O)(C(=O)CO)C[C@@H]3O[C@H]1C[C@H](N)[C@H](O)[C@H](C)O1 [Doxorubicin]
IR (%) tumor inhibition rate ([5]; 12 mg/kg q7d × 3, IV): 57.2* %
IR (%) tumor inhibition rate ([7]; CCRF-CEM, 12 mg/kg q7d × 3, IV): 50.3* %

IC50 [4]: 0.136 µg/mL (≈ 0.231 µM)
SMILES: COc1cc([C@@H]2c3cc4c(cc3[C@@H](O[C@@H]3O[C@@H]5CO[C@@H](C)O[C@H]5[C@H](O)[C@H]3O)[C@H]3COC(=O)[C@H]23)OCO4)cc(OC)c1O [Etoposide]
IR (%) tumor inhibition rate ([5]; 12 mg/kg qd × 5, IV): 3.0%
IR (%) tumor inhibition rate ([7]; CCRF-CEM, 12 mg/kg qd × 5, IV): 28.3%
Survival Ratio ([7]; nude, mouse, in vivo, iv, 12 mg/kg): 6/6

SMILES: CCc1c2c(nc3ccc(OC(=O)N4CCC(N5CCCCC5)CC4)cc13)-c1cc3c(c(=O)n1C2)COC(=O)[C@]3(O)CC [Irinotecan]
IC50 [3]: 44.4 µg/mL (≈ 75.7 µM)
IC50 [4]: 0.905 µg/mL (≈ 1.54 µM)
IR (%) tumor inhibition rate ([5]; 100 mg/kg q4d × 3, IV): 97.7* %
Survival Ratio ([5]; 100 mg/kg q4d × 3, IV): 6/6
IC50 [6]: 0.479 µg/mL (≈ 0.816 µM)
IR (%) tumor inhibition rate [7, 12]: 99.7* %
Survival Ratio [7, 12]: 5/6
